# Experimental data taken from ChEMBL document CHEMBL1135451, “Electrochemical and peroxidase oxidation study of N'-hydroxyguanidine derivatives as NO donors” (Bioorg Med Chem Lett, 2002).
# Experiment: NO-releasing ability under the oxidation by horseradish peroxidase (HRP) in the presence of H2O2 for 20min, expressed as nitrite concentration
# Assay type: functional
row,SMILES,Concentration
1,N/C(=N/CCCC(N)C(=O)O)NO (configuration not stated),12 µM
2,COc1ccc(C/N=C(/N)NO)cc1,49 µM
3,N/C(=N/Cc1ccc(Cl)cc1)NO,151 µM
4,COc1ccc(NC(=N)NO)cc1,24 µM
5,Cc1ccc(C/N=C(/N)NO)cc1,113 µM
6,N=C(N)NCCC[C@H](N)C(=O)O,0 µM
7,N=C(NO)NCc1ccccc1,33 µM
8,N=C(NO)Nc1ccccc1,28 µM
9,Cc1ccc(NC(=N)NO)cc1,6 µM
10,N=C(NO)Nc1ccc(Cl)cc1,63 µM
11,N/C(=N/c1ccc(Br)cc1)NO,54 µM
12,N/C(=N/Cc1ccc([N+](=O)[O-])cc1)NO,65 µM
